# Data from patent publication US9221900B2, “Methods for identifying safe and functional humanized antibodies” (AC IMMUNE S.A., priority 2010, dated 2015).
# Assays:
# [1] = test system: mixed cortical cells from P1 rats; experiment: Aβ1-42 oligomer cytotoxicity assay, MTT readout; format: cell-based, rat
# Experimental: FIG. 2 provides graphs and immunocytochemical images corresponding to the experiments described in Example 6.3. […] An MTT assay was used to determine cell viability as described in the Methods section. The means (±SEM) of five independent experiments are shown. *P<0.05, **P<0.01. […] Neurotoxicity following extended Aβ1-42 oligomer treatment was tested by morphological analyses (C).
# A non-specific IgG monoclonal antibody was used as a control in all experiments.
# Rat primary cortical cultures were prepared from Sprague-Dawley rats (Charles River Laboratories L'Arbresle, France) at post-natal day 1, as described by Meberg and Miller (Meberg and Miller, 2003). Cerebellum and meninges were removed, and cortices were cut into small pieces and dissociated with enzymatic disruption at 37° C. in dissociation buffer (papaine, CaCl2, EDTA, and HEPES; all from Invitrogen, Carlsbad, Calif.). DNase (Invitrogen) was added for 10 min. Following dissociation, dispersed cortical neurons were plated onto poly-L-lysine (0.01%; mol. wt 150,000-300,000; Sigma) coated 6-well, 24-well, or 96-well tissue culture plates. For immunocytochemistry, cells were grown on coated glass coverslips, into 24-well plates. Cells were maintained in Neurobasal media (Invitrogen) without phenol-red, with the addition of L-glutamine (2 mM; Sigma), B27 supplement (Invitrogen), and penicillin/streptomycin (Sigma) in a humidified incubator at 37° C. and 5% CO2. Following 1 h and 30 min in culture, the media was replaced with astrocyte-conditioned medium. After a further 4 days in culture, cell proliferation was blocked by treatment with cytosine arabinoside (Ara-C) at 2.5 μM (Invitrogen). Under these culture conditions, 20% of cells were identified as neurons by NeuN/DAPI staining (not shown). Experiments using mixed cortical cultures were generally performed at days-in-vitro (“DIV”) 6 unless stated otherwise. Enriched microglia prepared from cortex and hippocampus were harvested as described for cortical cultures above. Cortex and hippocampus were put in DMEM containing high glucose and homogenized by pipetting with a 10 mL pipette and then with a syringe. The homogenate was centrifuged for 3 min at 1,000×g, and then resuspended in pre-warmed DMEM containing high glucose containing 10% FCS and penicillin/streptomycin (microglia media). The cell suspension was next transferred to a T75 tissue-culture flask and kept in a humidified incubator at 37° C. and 5% CO2 for 1 week. The flask was shaken to separate microglia from adherent cells, and collected and washed in DMEM. The resulting cells were resuspended in 1 mL microglia media, counted, and plated at 5×10^4 cells/well. To verify microglial enrichment, cells were stained with the astroglial and microglial markers GFAP and Iba1, respectively. Greater than 60% of cells stained positive for Iba1, with no cells staining for both GFAP and Iba1. Pure microglia were prepared from post-natal day 3 CX3CR1-GFP mice (Jackson Laboratories). Cortex and hippocampus were dissected and triturated in DMEM containing high glucose using a 10 mL pipette, and then with an 18 gauge needle. The homogenate was centrifuged for 3 min at 1,000 g, and then resuspended in pre-warmed DMEM containing high glucose, 10% FBS and penicillin/streptomycin (microglia media). The cell suspension was next transferred to a T75 tissue-culture flask and kept in a humidified incubator at 37° C. and 5% CO2 for 7-10 d. Microglia were isolated by shaking, collected and washed in DMEM. The resulting cells were resuspended in 1 mL microglia media, counted, and plated on tissue culture treated glass chamber slides at 5×10^4 cells/well for use in experiments.
# The cytotoxicity of Aβ1-42 oligomers was tested on mixed cortical cultures at DIV 5. All antibodies, at a final concentration of 100 μg/mL, were co-incubated with Aβ1-42 oligomers for 30 min in serum-free cell culture medium at 37° C. before treatment of cells. […]
# [2] = test system: microglia; experiment: Confocal imaging of microglial uptake of Aβ1-42 oligomers; format: cell-based, rat; conditions: primary cortical microglia
# Experimental: Aβ1-42 oligomers are shown in red, and blue is DAPI staining of DNA to show the microglia itself (A). An apical-to-distal slice was obtained from a three-dimensional image rendered from Z-stacks. Confocal imaging was performed on mixed cortical cells labeled for Aβ (red) and stained with DAPI (blue) as described in the Example Section under Materials and Methods. Microglia were identified and scanned for the maximum fluorescence intensity through a series of confocal stacks representing intracellular locations (B), and the total area of fluorescent signal above a minimum threshold was quantified (C). Each mark on the graph represents the total area of Aβ stained within a single cell. A minimum of 20 cells were analyzed for each treatment condition. Data were compared using one-way ANOVA followed by Tukey post-hoc multiple comparison. Means (±SEM) are shown. […] Red is Iba1 staining, green is HyLite Fluor-488-labeled Aβ1 42, and blue is DAPI staining. […] Statistical analysis was done using one-way ANOVA followed by Tukey post-hoc multiple comparison.
# Cells were grown on a glass coverslips. Following treatment, cells were quickly washed with PBS and then fixed with 4% paraformaldehyde for 20 min. After thorough washes, cells were immersed in 100% methanol for 10 min at −20° C. They were then washed again and incubated in a blocking solution, PBS containing 10% normal goat serum for 1 h at room temperature. After an overnight incubation with the primary antibody, cells were washed and incubated for 2 h with the secondary antibody, then washed and mounted on glass slides using ProLong Gold antifade reagent (Invitrogen). Epifluorescence and confocal images were acquired on a LSM 700 inverted microscope from Zeiss, using a 63× lens. Fluorescence intensity was measured in cell bodies delineated by saturated epifluorescence pictures. Z-stacks were rendered into a three-dimensional image using ImageJ 1.42 (National Institutes of Health, freeware) from which an apical to distal slice containing the labeled proteins was obtained. Cells treated with HyLite Fluor-488-tagged Aβ1-42 were treated in the same way except no primary or secondary antibodies were used to label for Aβ1-42.
# [3] = biological target: T1, FcγRIIIa-V158 (Homo sapiens, UniProt P08637, F176V); experiment: FcγR binding ELISA, FcγRIIIa-V158; conditions: cross-linked IgG mAb
# T1 construct: fusion proteins containing the extracellular domain of the receptor γ-chain
# T1 sequence (P08637 17-208 F176V): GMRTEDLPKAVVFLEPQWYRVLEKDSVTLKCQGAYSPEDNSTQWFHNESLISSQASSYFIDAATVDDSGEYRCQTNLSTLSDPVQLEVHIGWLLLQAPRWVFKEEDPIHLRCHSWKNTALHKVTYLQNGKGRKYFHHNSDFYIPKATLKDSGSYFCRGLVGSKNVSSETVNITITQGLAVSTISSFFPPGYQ
# Experimental: The ability of these different monoclonal antibody backbones to internalize Aβ1-42 oligomers into microglia was then compared using confocal imaging on Aβ1-42 oligomer treated primary cortical microglia. […] To verify that microglia are indeed the cells taking up Aβ1-42 complexed to monoclonal antibodies, the study was repeated using HiLyte Fluor-488 tagged Aβ1-42 and co-stained for the microglial marker Iba1.
# (§1) The binding of test antibodies to a panel of human Fcγ receptors (FcγRs) was measured using enzyme-linked immunosorbent assay (ELISA). Human FcγRs (Genentech, Inc., CA) are fusion proteins containing the extracellular domain of the receptor γ-chain with a Gly/6xHis/glutathione S transferase (GST) polypeptide tag at the C terminus. A monoclonal antibody with human IgG1 framework was used as the positive control (IgG1 control) in this experiment. Plates were coated with a mouse monoclonal anti GST antibody (Genentech, Inc.) in a 0.05 M sodium carbonate buffer (pH 9.6) overnight at 4° C. After blocking with an assay buffer containing phosphate buffered saline (PBS), 0.5% BSA, and 0.05% Tween-20, the plates were incubated with FcγRs at room temperature for 1 h. Human FcγRs were immobilized to the plate via interaction with the anti-GST coating. […] Diluted samples were applied as monomeric forms for the high affinity receptor (FcγRIa), or multimeric forms for the low affinity receptors (FcγRIIa, FcγRIIb, and FcγRIIIa). […] The antibodies bound to the FcγRs were detected with horseradish peroxidase (HRP)-conjugated F(ab′)2 fragment of goat anti human F(ab′)2 (Jackson ImmunoResearch Laboratories; West Grove, Pa.). […] The reaction was terminated with 1 M H3PO4, and absorbance at 450 nm with reference at 650 nm was measured on a plate reader (Molecular Devices, Sunnyvale, Calif.). Binding curves were generated by plotting the mean absorbance values from duplicates of sample dilutions against the respective sample absorbance.
# [4] = test system: human Fcγ receptors (FcγRIa, FcγRIIa, FcγRIIb, FcγRIIIa); experiment: FcγR binding ELISA, panel of human Fcγ receptors; conditions: cross-linked antibody
# Experimental: FIG. 10 provides graphs and immunocytochemical images corresponding to the experiments described in Example 6.5. […] These findings are consistent with published data for human IgG4 antibodies (Gessner et al., 1998) and IgG1 antibodies carrying the D265A mutation (Shields et al., 2001).
# as §1, with “FcγRIIIa). The multimeric forms of test antibodies were generated by cross linking F(ab′)2 fragment of goat anti human κ-chain (MP Biomedicals, Solon, Ohio), with test monoclonal antibody at an approximate molar ratio of 3:1. The plates were incubated with FcγRs at room temperature for 2 h.” for “FcγRIIIa).”
substance,measurement,setting,value
MABT-IgG1-D265A: same antigen binding sequences as MABT on human IgG1 backbone carrying a D265A mutation that dramatically reduces FcγR-binding,antibody-mediated increase in MTT signal under p38MAPK inhibition,"[1]; 10 μM Aβ1-42 oligomers, 100 μg/ml antibody, 1 μM SB239063, 24 h",no effect
same,reversal of Aβ1-42 oligomer-mediated toxicity,"[1]; mixed primary cortical cultures, different IgG backbones",only a non-significant trend towards reversal
same,"Aβ1-42 oligomer internalization into microglia, rank order",[2],MABT-IgG1>MABT>MABT-IgG1-D265A
same,"binding to FcγRIIIa-V158, hierarchy",[3],MABT-IgG>MABT>MABT-IgG1-D265A
same,binding to FcγRs,[4],substantially reduced binding to all the FcγRs
